Measured values: ChEMBL document CHEMBL1817560, “Selectivity of kinase inhibitor fragments” (J Med Chem, 2011)

Legend:
[1] = target: Phosphatidylinositol 4,5-bisphosphate 3-kinase catalytic subunit gamma isoform (Homo sapiens) (UniProt P48736); experiment: Inhibition of PI3Kgamma expressed in Escherichia coli or baculovirus-infected insect cells at 667 uM by fluorescence polarization assay
[2] = target: Serine/threonine-protein kinase B-raf (Homo sapiens) (UniProt P15056); experiment: Inhibition of B-Raf expressed in Escherichia coli or baculovirus-infected insect cells using ATP as substrate at 400 uM by fluorescence polarization assay
[3] = target: Receptor tyrosine-protein kinase erbB-2 (Homo sapiens) (UniProt P04626); experiment: Inhibition of ErbB2 expressed in Escherichia coli or baculovirus-infected insect cells at 400 uM by TR-FRET assay
[4] = target: Receptor tyrosine-protein kinase erbB-4 (Homo sapiens) (UniProt Q15303); experiment: Inhibition of ErbB4 expressed in Escherichia coli or baculovirus-infected insect cells at 400 to 667 uM by TR-FRET assay
[5] = target: Glycogen synthase kinase-3 beta (Homo sapiens) (UniProt P49841); experiment: Inhibition of GSK3-beta expressed in Escherichia coli or baculovirus-infected insect cells using ATP as substrate at 667 uM by fluorescence polarization assay
[6] = target: T1, Tyrosine-protein kinase ITK/TSK (Homo sapiens) (UniProt Q08881); experiment: Inhibition of ITK expressed in Escherichia coli or baculovirus-infected insect cells at 667 uM by TR-FRET assay
T1 sequence (whole entry): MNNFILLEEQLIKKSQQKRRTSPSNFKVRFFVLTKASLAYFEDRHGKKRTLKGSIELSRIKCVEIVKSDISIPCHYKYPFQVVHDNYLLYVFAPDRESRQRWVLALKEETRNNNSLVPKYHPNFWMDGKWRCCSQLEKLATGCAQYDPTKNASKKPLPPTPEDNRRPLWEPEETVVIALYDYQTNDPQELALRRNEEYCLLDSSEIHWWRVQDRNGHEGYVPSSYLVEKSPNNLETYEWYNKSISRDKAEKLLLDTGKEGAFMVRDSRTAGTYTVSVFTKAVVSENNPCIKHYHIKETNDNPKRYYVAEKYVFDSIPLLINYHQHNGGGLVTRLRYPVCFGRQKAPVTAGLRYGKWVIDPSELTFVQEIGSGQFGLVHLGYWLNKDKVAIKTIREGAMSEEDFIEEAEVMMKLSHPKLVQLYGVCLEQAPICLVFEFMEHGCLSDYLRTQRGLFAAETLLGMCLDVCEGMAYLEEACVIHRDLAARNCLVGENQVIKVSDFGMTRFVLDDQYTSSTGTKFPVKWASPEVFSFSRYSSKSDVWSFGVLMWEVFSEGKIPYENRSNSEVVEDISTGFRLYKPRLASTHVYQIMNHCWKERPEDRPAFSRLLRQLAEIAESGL

[7] = target: MAP kinase-activated protein kinase 2 (Homo sapiens) (UniProt P49137); experiment: Inhibition of MK2 expressed in Escherichia coli or baculovirus-infected insect cells at 667 uM by IMAP assay
[8] = target: Serine/threonine-protein kinase PAK 2 (Homo sapiens) (UniProt Q13177); experiment: Inhibition of PAK2 expressed in Escherichia coli or baculovirus-infected insect cells at 400 uM by IMAP assay
[9] = target: Phosphatidylinositol 4,5-bisphosphate 3-kinase catalytic subunit alpha isoform (Homo sapiens) (UniProt P42336); experiment: Inhibition of PI3Kalpha expressed in Escherichia coli or baculovirus-infected insect cells using gamma-[33P]ATP at 400 uM by scintillation proximity assay
[10] = target: Rho-associated protein kinase 1 (Homo sapiens) (UniProt Q13464); experiment: Inhibition of ROCK1 expressed in Escherichia coli or baculovirus-infected insect cells at 400 uM by IMAP assay
[11] = target: T2, Serine/threonine-protein kinase Sgk1 (Homo sapiens) (UniProt O00141); experiment: Inhibition of SGK1 expressed in Escherichia coli or baculovirus-infected insect cells at 400 uM by IMAP assay
T2 sequence (whole entry): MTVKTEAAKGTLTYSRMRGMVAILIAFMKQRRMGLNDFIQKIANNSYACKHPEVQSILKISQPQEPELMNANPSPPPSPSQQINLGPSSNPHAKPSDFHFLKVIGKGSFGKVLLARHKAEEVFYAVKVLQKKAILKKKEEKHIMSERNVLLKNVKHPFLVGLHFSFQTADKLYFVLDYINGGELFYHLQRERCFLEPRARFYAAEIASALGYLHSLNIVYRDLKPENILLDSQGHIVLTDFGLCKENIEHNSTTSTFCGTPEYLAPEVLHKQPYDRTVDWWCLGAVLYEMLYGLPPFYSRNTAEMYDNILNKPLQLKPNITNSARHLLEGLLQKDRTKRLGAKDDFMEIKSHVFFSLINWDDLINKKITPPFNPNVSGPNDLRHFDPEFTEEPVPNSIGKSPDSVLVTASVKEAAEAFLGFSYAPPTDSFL

[12] = target: Serine/threonine-protein kinase PAK 1 (Homo sapiens) (UniProt Q13153); experiment: Inhibition of PAK1 expressed in Escherichia coli or baculovirus-infected insect cells at 400 uM by IMAP assay
[13] = target: RAC-alpha serine/threonine-protein kinase (Homo sapiens, UniProt P31749); experiment: Inhibition of AKT1 expressed in Escherichia coli or baculovirus-infected insect cells by scintillation proximity assay
[14] = target: T3, Inhibitor of nuclear factor kappa-B kinase subunit beta (Homo sapiens, UniProt O14920); experiment: biochemical; format: cell-based
T3 sequence (O14920 whole entry): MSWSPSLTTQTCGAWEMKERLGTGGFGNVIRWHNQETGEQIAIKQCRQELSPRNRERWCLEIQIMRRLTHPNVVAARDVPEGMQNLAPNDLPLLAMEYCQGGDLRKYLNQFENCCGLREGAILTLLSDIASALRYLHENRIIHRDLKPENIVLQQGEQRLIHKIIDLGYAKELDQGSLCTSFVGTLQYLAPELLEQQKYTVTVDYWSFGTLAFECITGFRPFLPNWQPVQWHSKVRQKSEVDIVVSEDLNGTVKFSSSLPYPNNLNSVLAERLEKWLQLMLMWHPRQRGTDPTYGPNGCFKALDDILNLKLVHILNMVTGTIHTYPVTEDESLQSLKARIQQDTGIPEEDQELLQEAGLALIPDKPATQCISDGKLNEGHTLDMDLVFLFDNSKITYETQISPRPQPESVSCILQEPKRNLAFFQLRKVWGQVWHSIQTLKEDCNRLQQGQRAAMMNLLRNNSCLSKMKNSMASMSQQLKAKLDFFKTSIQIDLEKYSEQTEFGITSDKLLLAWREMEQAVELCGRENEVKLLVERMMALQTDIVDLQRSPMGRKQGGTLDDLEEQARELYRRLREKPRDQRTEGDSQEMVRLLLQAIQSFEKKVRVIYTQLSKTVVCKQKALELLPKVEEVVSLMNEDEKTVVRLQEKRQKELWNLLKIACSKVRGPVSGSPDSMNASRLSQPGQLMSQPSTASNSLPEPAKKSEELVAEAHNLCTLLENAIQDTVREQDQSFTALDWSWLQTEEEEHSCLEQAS

Sequence of Serine/threonine-protein kinase PAK 2 (Homo sapiens) (Q13177 whole entry, canonical isoform): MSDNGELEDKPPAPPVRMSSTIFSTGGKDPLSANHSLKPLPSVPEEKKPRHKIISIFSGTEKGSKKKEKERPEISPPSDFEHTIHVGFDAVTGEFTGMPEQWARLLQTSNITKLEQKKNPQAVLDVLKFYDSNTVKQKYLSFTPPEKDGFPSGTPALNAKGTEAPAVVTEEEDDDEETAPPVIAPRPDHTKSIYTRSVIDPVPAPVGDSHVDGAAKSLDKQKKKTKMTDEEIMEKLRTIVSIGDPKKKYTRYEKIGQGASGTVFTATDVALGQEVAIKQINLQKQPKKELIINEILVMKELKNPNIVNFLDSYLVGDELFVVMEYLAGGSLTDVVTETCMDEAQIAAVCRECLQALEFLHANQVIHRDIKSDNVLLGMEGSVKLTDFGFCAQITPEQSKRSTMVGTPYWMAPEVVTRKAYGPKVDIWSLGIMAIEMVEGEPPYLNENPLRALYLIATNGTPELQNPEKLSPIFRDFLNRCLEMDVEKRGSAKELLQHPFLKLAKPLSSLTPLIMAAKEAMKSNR
Sequence of Serine/threonine-protein kinase B-raf (Homo sapiens) (P15056 whole entry): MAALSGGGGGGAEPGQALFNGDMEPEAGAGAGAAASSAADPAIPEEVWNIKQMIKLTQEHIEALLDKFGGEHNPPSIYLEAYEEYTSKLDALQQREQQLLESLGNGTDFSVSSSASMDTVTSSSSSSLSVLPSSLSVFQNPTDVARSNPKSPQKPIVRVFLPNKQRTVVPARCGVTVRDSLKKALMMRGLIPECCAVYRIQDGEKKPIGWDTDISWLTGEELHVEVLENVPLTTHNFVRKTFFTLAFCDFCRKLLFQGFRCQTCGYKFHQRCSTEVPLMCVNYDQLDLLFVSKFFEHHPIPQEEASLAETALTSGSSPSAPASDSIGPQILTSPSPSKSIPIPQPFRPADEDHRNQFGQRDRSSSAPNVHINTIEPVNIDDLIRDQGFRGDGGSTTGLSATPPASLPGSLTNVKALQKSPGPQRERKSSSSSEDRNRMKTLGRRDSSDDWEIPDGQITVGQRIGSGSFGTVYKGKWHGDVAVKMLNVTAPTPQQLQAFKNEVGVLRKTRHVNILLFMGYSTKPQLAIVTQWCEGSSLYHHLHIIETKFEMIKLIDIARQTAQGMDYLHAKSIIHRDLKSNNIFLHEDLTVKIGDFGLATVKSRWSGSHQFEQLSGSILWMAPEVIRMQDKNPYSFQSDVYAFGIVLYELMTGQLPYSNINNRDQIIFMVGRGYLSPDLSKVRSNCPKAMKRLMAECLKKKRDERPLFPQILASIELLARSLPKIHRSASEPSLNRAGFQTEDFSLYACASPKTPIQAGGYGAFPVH
Sequence of MAP kinase-activated protein kinase 2 (Homo sapiens) (P49137 whole entry, looked up): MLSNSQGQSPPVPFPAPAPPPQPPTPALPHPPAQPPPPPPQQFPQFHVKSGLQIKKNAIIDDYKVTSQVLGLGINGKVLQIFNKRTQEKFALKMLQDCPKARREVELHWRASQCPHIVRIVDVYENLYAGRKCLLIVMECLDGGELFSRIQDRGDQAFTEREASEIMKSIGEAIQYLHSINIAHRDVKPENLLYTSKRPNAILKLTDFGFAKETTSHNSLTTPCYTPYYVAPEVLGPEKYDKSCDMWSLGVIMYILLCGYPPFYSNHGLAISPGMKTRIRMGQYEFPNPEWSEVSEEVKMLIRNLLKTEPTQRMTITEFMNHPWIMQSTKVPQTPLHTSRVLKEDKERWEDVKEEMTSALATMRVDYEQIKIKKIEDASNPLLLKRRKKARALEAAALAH
Sequence of Phosphatidylinositol 4,5-bisphosphate 3-kinase catalytic subunit gamma isoform (Homo sapiens) (P48736 whole entry, looked up, canonical isoform): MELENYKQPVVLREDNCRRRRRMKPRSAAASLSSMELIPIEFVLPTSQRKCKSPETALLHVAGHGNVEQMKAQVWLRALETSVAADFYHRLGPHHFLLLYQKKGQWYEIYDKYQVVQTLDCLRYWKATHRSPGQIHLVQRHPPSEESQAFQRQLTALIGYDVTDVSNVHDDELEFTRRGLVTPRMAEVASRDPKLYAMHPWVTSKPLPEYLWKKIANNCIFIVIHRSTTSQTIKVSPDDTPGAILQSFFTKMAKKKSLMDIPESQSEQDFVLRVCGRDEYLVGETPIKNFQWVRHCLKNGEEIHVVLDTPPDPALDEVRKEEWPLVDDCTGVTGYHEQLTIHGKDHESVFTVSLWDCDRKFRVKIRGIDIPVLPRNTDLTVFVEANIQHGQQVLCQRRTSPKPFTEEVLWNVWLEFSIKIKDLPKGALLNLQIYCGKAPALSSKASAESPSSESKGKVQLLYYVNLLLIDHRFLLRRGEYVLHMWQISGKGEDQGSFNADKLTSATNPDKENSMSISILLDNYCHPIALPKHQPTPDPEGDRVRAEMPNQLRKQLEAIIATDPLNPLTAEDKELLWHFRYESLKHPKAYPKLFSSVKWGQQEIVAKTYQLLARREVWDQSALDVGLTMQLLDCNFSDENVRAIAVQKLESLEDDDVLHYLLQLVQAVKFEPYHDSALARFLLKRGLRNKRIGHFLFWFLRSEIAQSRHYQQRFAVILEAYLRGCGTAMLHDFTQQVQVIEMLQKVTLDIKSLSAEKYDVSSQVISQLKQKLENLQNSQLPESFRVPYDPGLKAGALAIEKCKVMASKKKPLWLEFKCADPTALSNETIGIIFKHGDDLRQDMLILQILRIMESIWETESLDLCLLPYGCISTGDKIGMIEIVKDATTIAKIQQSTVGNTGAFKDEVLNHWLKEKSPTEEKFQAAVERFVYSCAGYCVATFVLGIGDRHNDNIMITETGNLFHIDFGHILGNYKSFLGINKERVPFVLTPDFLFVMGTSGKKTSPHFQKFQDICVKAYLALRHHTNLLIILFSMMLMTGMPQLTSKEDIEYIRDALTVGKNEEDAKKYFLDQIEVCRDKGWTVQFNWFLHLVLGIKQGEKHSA
Sequence of RAC-alpha serine/threonine-protein kinase (P31749 whole entry): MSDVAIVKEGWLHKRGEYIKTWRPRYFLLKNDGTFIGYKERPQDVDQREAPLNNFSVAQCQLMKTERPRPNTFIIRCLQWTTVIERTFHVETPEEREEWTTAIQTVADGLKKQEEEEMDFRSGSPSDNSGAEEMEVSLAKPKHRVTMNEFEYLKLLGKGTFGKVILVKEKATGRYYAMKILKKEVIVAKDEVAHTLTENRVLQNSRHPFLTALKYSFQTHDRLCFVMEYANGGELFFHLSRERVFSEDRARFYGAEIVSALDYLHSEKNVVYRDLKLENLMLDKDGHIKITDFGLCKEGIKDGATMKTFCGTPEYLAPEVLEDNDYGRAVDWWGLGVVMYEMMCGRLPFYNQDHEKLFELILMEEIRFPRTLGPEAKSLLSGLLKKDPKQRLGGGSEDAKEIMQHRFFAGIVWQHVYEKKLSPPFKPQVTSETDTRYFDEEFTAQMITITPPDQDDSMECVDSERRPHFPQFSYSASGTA
Sequence of Phosphatidylinositol 4,5-bisphosphate 3-kinase catalytic subunit alpha isoform (Homo sapiens) (P42336 whole entry, canonical isoform): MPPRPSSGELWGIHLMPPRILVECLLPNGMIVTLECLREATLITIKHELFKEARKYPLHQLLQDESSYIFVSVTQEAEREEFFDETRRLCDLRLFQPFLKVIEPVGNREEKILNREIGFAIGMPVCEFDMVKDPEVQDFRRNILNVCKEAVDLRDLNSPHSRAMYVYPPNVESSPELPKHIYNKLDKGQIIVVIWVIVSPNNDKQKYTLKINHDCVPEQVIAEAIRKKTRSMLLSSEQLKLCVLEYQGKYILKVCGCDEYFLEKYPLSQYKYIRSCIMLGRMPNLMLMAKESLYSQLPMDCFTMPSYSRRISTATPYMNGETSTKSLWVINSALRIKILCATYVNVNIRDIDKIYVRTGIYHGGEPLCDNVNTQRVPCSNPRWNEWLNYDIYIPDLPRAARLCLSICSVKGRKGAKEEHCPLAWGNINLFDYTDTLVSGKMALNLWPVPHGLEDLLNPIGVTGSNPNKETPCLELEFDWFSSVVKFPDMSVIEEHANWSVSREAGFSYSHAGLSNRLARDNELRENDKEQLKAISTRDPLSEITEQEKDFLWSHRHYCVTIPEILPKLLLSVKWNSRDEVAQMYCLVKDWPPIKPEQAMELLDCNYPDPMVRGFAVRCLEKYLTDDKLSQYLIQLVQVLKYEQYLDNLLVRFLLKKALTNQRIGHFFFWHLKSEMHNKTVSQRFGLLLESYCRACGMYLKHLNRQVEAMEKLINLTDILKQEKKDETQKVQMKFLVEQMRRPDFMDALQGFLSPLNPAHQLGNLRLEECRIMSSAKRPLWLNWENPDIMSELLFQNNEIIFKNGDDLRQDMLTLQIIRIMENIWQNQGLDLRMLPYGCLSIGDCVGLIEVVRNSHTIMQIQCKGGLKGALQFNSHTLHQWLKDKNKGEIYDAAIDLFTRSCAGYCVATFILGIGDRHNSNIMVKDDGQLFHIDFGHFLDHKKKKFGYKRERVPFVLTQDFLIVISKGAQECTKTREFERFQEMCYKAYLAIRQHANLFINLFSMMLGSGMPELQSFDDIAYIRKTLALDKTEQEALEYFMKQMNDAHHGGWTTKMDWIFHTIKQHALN
Sequence of Glycogen synthase kinase-3 beta (Homo sapiens) (P49841 whole entry, looked up): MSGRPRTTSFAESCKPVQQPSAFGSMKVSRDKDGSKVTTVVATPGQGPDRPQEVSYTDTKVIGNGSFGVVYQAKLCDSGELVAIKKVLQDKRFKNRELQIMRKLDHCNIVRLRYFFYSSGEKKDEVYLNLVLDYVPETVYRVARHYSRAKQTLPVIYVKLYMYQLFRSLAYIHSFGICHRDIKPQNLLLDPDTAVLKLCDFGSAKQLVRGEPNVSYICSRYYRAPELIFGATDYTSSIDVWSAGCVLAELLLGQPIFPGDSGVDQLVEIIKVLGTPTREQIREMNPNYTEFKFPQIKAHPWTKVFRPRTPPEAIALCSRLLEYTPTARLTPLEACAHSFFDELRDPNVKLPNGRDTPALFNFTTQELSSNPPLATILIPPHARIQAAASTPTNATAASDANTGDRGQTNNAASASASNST

Row | inhibition [1] [%] | inhibition [2] [%] | inhibition [3] [%] | inhibition [4] [%] | inhibition [5] [%] | inhibition [6] [%] | inhibition [7] [%] | inhibition [8] [%] | inhibition [9] [%] | inhibition [10] [%] | inhibition [11] [%] | inhibition [12] [%] | IC50 ([14]; read-out: IC50) [µM] | IC50 ([14]; read-out: pIC50 (converted)) [µM] | Structure (SMILES) | IC50 ([13]; read-out: IC50) [µM] | IC50 ([13]; read-out: pIC50 (converted)) [µM]
1 | 100 | 100 | 21 | 17 | 92 | 12 | 54 | 17 | 59 | 64 | 52 |  |  |  | Nc1ncccc1OCc1ccccc1 |  | 
2 | 10 |  | 1 | 0 | 34 | 41 | 54 | 16 | 22 | 65 | 97 | 17 |  |  | Nc1[nH]nc2ccccc12 |  | 
3 | 9 |  | 0 | 0 | 19 | 0 | 28 | 0 | 40 | 9 | 10 |  |  |  | CC(C)(C)c1cc(NC(=O)Nc2ccccc2)no1 |  | 
4 | 13 |  | 5 | 0 | 23 | 14 | 8 | 2 | 16 | 3 | 17 |  |  |  | Cc1ccc(C(=O)NC2CC2)cc1F |  | 
5 | 13 |  | 0 | 0 | 41 | 24 | 24 | 3 | 24 | 25 | 27 | 0 |  |  | c1n[nH]c2c1CCCC2 |  | 
6 | 0 |  | 0 | 0 | 22 | 0 | 13 | 0 | 4 | 7 | 8 |  |  |  | Cc1ccc(NC(=O)Nc2cccc(C(F)(F)F)c2)cc1 |  | 
7 | 9 |  | 2 | 0 | 11 | 0 | 18 | 5 | 11 | 5 | 15 |  |  |  | O=C(Nc1ccccc1)Nc1ccccc1 |  | 
8 | 2 |  | 0 | 44 | 13 | 41 | 7 | 4 | 20 | 0 | 3 | 14 |  |  | c1ccc(Nc2ccccc2)cc1 |  | 
9 | 70 |  | 25 | 47 | 66 | 94 | 28 | 32 | 86 | 93 | 90 | 38 |  |  | Nc1ccc2ncc(-c3ccccc3)n2n1 |  | 
10 | 92 |  | 0 | 0 | 19 | 6 | 0 | 0 | 46 | 0 | 0 | 0 |  |  | c1ccc(-c2cnc3nccnn23)cc1 |  | 
11 | 66 |  | 3 | 9 | 57 | 87 | 80 | 36 | 45 | 80 | 76 |  |  |  | Nc1[nH]cnc2ncnc1-2 |  | 
12 | 20 |  | 9 | 13 | 59 | 39 | 47 | 7 | 29 | 46 | 63 |  |  |  | Nc1n[nH]c2ncccc12 |  | 
13 | 20 | 19 | 0 | 5 | 21 | 44 |  | 4 | 16 | 76 | 62 |  | > 667 | > 631 | c1cnc2[nH]ccc2c1 | > 400 | > 398
14 | 16 | 10 | 4 | 15 | 55 | 69 | 24 | 3 | 14 | 10 | 21 | 19 | > 667 | > 631 | c1ccc(Nc2ncccn2)cc1 |  | 
15 | 7 |  | 0 | 0 | 19 | 0 | 16 | 5 | 10 | 8 | 8 |  |  |  | O=C(Nc1ccccc1)Nc1cccc(C(F)(F)F)c1 |  | 
16 | 2 |  | 2 | 0 | 34 | 30 | 24 | 0 | 27 | 6 | 7 |  |  |  | Cc1ccc(NC(=O)Nc2cc(C(C)(C)C)nn2-c2ccccc2)cc1 |  | 

Row | Structure (SMILES) | inhibition [1] [%] | inhibition [2] [%] | inhibition [3] [%] | inhibition [4] [%] | inhibition [5] [%] | inhibition [6] [%] | inhibition [7] [%] | inhibition [8] [%] | inhibition [9] [%] | inhibition [10] [%] | inhibition [11] [%] | inhibition [12] [%] | IC50 ([14]; read-out: IC50) [µM] | IC50 ([14]; read-out: pIC50 (converted)) [µM] | IC50 ([13]; read-out: IC50) [µM] | IC50 ([13]; read-out: pIC50 (converted)) [µM]
17 | c1ccc2[nH]ncc2c1 [INDAZOLE] | 0 | 0 | 0 | 5 | 35 | 26 |  | 5 | 6 | 80 | 75 | 12 |  |  | > 400 | > 398
